Reference: PubChem BioAssay (NCI)
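Compound exposure: 48 hours, 5 concentrations, 96-well plates. Abbreviation: GI50, concentration required for 50% inhibition of growth. TGI is the concentration that stops growth completely.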

Columns and labels:
Experiment in all cases: NCI tumour cell line growth inhibition, 48 h
[1] = test system: NCI-H23 lung
[2] = test system: NCI-H460 lung
[3] = test system: NCI-H522 lung
[4] = test system: NCI/ADR-RES ovarian
[5] = test system: OVCAR-3 ovarian
[6] = test system: OVCAR-4 ovarian
[7] = test system: OVCAR-5 ovarian
[8] = test system: OVCAR-8 ovarian
[9] = test system: PC-3 prostate
[10] = test system: RPMI-8226 leukemia
[11] = test system: RXF 393 renal
[12] = test system: SF-268 CNS
[13] = test system: SF-295 CNS
[14] = test system: SF-539 CNS
[15] = test system: SK-MEL-2 melanoma
[16] = test system: SK-MEL-28 melanoma
[17] = test system: SK-MEL-5 melanoma
[18] = test system: SK-OV-3 ovarian
[19] = test system: SN12C renal
[20] = test system: SNB-19 CNS
[21] = test system: SNB-75 CNS
[22] = test system: SR leukemia
[23] = test system: SW-620 colon
[24] = test system: T-47D breast
[25] = test system: TK-10 renal
[26] = test system: U251 CNS
[27] = test system: UACC-257 melanoma
[28] = test system: UACC-62 melanoma
[29] = test system: UO-31 renal

## CNC(=O)NCC1OC(n2cnc3c(NC(=O)Nc4ccccc4)ncnc32)C(O[Si](C)(C)C(C)(C)C)C1CC(=O)N(C)OC (stereo not drawn)
[1]
  GI50: 23.6 µM
  TGI: > 100 µM
[2]
  GI50: 5.32 µM
  TGI: > 100 µM
[3]
  GI50: 7.76 µM
  TGI: > 100 µM
[4]
  GI50: > 100 µM
  TGI: > 100 µM
[5]
  GI50: 5.84 µM
  TGI: > 100 µM
[6]
  GI50: 16.6 µM
  TGI: > 100 µM
[7]
  GI50: 16.8 µM
  TGI: > 100 µM
[8]
  GI50: 6.52 µM
  TGI: > 100 µM
[9]
  GI50: 4.95 µM
  TGI: > 100 µM
[10]
  GI50: 1.58 µM
  TGI: 5.4 µM
[11]
  GI50: 4.02 µM
  TGI: 12.7 µM
[12]
  GI50: 8.29 µM
  TGI: > 100 µM
[13]
  GI50: 9.09 µM
  TGI: > 100 µM
[14]
  GI50: 8.21 µM
  TGI: > 100 µM
[15]
  GI50: 8.08 µM
  TGI: > 91.2 µM
[16]
  GI50: 5.21 µM
  TGI: > 100 µM
[17]
  GI50: 4.92 µM
  TGI: > 100 µM
[18]
  GI50: > 72.6 µM
  TGI: > 100 µM
[19]
  GI50: 17.1 µM
  TGI: > 100 µM
[20]
  GI50: > 23 µM
  TGI: > 100 µM
[21]
  GI50: 6.32 µM
  TGI: > 100 µM
[22]
  GI50: 1.63 µM
  TGI: 4.06 µM
[23]
  GI50: > 100 µM
  TGI: > 100 µM
[24]
  GI50: 7.41 µM
  TGI: > 100 µM
[25]
  GI50: 9.17 µM
  TGI: > 100 µM
[26]
  GI50: 4.85 µM
  TGI: > 100 µM
[27]
  GI50: 8.25 µM
  TGI: > 100 µM
[28]
  GI50: 41.9 µM
  TGI: > 100 µM
[29]
  GI50: 5.7 µM
  TGI: > 100 µM
